Laboratory results published in PMC11274654 (Biomedicines, 2024).

Key:
mouse BMSCs (mBMSCs) = test: ALP activity in mouse bone marrow stromal cells; assay type: cell-based; details: 1 nM, seven days post-treatment
[1] = In vitro MTZ release in PBS and release kinetics models; assay type: physicochemical; set-up: Hixson–Crowell kHC / Zero-order K0 / First-order K1 / Higuchi kH: unit not given here; details: in PBS
Procedure: To evaluate the release kinetics profile of MTZ, a formulation containing 10 mg equivalent of MTZ was injected into 200 mL of the PBS medium (37 ± 0.5 °C) using a 20-gauge needle. The formulation immediately turned into a gel upon contact with the dissolution medium. The dissolution vials were placed on a reciprocating bath-shaker and left for continuous shaking throughout the dissolution study. A total of 2 mL of aliquots were withdrawn and replaced with an equal volume of fresh PBS to maintain the sink condition. The dissolution study was conducted for a duration of 24 h. The samples were filtered through a syringe filter (0.22 μm). The MTZ concentrations were analyzed spectrophotometrically (294 nm) after appropriate dilution, with PBS as a blank for background correction. The measured concentrations were presented as the mean ± standard deviation (SD).
To understand the drug release kinetics, data obtained from the release study were fitted into various kinetics models: zero-order, first-order, Higuchi, Korsmeyer–Peppas, and Hixson–Crowell. The DD solver Excel add-in program was utilized to compare and identify the mechanism of drug release.

[2] = system: bone regeneration at the femur osteotomy site; test: Femur osteotomy model, oral MTZ; assay type: in vivo, Sprague Dawley rats; details: 117 mg/kg and 235 mg/kg oral daily, 12 days
Procedure: (§1) Femur osteotomy was carried out in adult female Sprague Dawley (SD) rats (200 ± 20 g, 3 months old) and 3-month post-ovariectomized osteopenic SD rats (280 ± 20 g, 6 months old) by inserting a drill bit with a diameter of 0.8 mm from the anterior to the posterior mid-diaphysis of the right femur.
(§2) The human equivalent dose for rats is 235 mg/kg; half of this amount, 117 mg/kg, was used for the study. Doses of MTZ (117 mg/kg and 235 mg/kg) were administered daily by the oral route for 12 days. For the formulation study, MTZ@In situ gel and unformulated MTZ were administered every 3 days (total of 4 injections) for a period of 12 days via the subcutaneous route in the osteotomy animal. Each rat received 20 mg/kg, s.c. of bone-seeking fluorochrome calcein 24 h before sacrifice in order to evaluate the new bone formation at the fractured callus.
(§3) A SkyScan 1076 μCT scanner (SkyScan, Ltd., Kartuizersweg, Kontich, Belgium) was used to perform a high-resolution μCT for the two-dimensional and three-dimensional assessment of excised bones. The rat bone scanning process used an isotropic voxel pixel size of 18 μm and an X-ray source of 70 kV and […]. Utilizing the SkyScan Nrecon software (Version: 1.7.0.4), cross-sectional reconstruction was performed. […] The Batman software (Version: 1.16.8.0+), with trabecular (3D) bone analysis programs was used for quantification.

[3] = system: serum P1NP and CTX-I of OVX rats; test: OVX osteopenia model, serum bone turnover markers (ELISA); assay type: in vivo, SD rats; details: 235 mg/kg oral, 3 months
Procedure: The 10-month-old (265 ± 20 g) SD rats were ovariectomized (OVX) bilaterally and left for 3 months to develop osteopenia. Ovary-intact sham-operated animals were used as a control. A live animal micro-CT was performed to confirm osteopenia, followed by dividing the animals into 3 groups: Sham + vehicle (water, oral), OVX + vehicle (water, oral), and OVX + MTZ (235 mg/kg, oral). Each group had 9 rats, and treatment were administered for 3 months. Calcein (20 mg/kg, s.c.) was injected twice before sacrificing at 10-day intervals. The levels of serum procollagen type I N-terminal peptide (P1NP) and serum cross-linked C-telopeptide of type I collagen (CTX-I) were assessed using ELISA (MyBioSource, San Diego, CA, USA), in accordance with the manufacturer’s protocol.

[4] = system: bone regeneration at the callus site in OVX rats; test: Femur osteotomy model in osteopenic OVX rats, oral MTZ; assay type: in vivo, ovariectomized osteopenic SD rats; details: 235 mg/kg oral, 12 days
Procedure: as §1, §2, §3

[5] = system: femur head strength of OVX rats; test: OVX osteopenia model, femur head compression test; assay type: in vivo, SD rats; details: 235 mg/kg oral, 3 months
Procedure: The 10-month-old (265 ± 20 g) SD rats were ovariectomized (OVX) bilaterally and left for 3 months to develop osteopenia. Ovary-intact sham-operated animals were used as a control. A live animal micro-CT was performed to confirm osteopenia, followed by dividing the animals into 3 groups: Sham + vehicle (water, oral), OVX + vehicle (water, oral), and OVX + MTZ (235 mg/kg, oral). Each group had 9 rats, and treatment were administered for 3 months. Calcein (20 mg/kg, s.c.) was injected twice before sacrificing at 10-day intervals. The mechanical compression strength of the femur head was examined by a compression test with a bone strength tester, TK […] (Muromachi Kikai Co., Ltd., Tokyo, Japan), as described before.

Cc1ncc([N+](=O)[O-])n1CCO [Metronidazole]
ALP activity compared to the vehicle group (mouse BMSCs (mBMSCs)): increased
First-order K1 [1]: 0.08 ± 0.00
First-order R^2 [1]: 0.84 ± 0.00
Higuchi R^2 [1]: 0.71 ± 0.00
Higuchi kH [1]: 16.34 ± 0.12
Hixson–Crowell R^2 [1]: 0.86 ± 0.01
Hixson–Crowell kHC [1]: 0.02 ± 0.00
Korsmeyer–Peppas R^2 [1]: 0.81 ± 0.01
Korsmeyer–Peppas kKP [1]: 8.64 ± 0.11
Korsmeyer–Peppas n (release exponent) [1]: 0.78 ± 0.01
Zero-order K0 [1]: 4.77 ± 0.05
Zero-order R^2 [1]: 0.76 ± 0.01
Bone volume at the osteotomy site [2]: increased
Calcein intensity at the osteotomy site [2]: increased
Serum bone formation marker P1NP levels [3]: restored
Serum resorption marker CTX-1 [3]: failed to reduce it
Bone volume at the callus site compared to the control group [4]: increased
Calcein intensity at the callus site compared to the control group [4]: increased
Energy (femur head compression) [5]: reversed both parameters to sham levels
Maximum power (femur head compression) [5]: reversed both parameters to sham levels
Stiffness (femur head compression) [5]: failed to increase it
